Holding throughout (assay): biochemical
What all share (set-up): Eurofins recombinant human kinase profiling, remaining kinase activity as % of control, 10 uM ATP
Holding throughout (details): ATP 10 uM; read-out: %Ctrl@10 μM

One assay has as its target T1, A-Raf(h) (Homo sapiens, UniProt P10398).
T1 construct: gene ARAF
From the text:
(§1) To rapidly determine the biological target of YL-939, we first tested the activity of YL-939 against a panel of 401 recombinant human protein kinases by using the kinase profiling assay provided by Eurofins, since kinases are often the key components in various signal pathways[35],[36]. […] We then carried out affinity-based proteome profiling assay (ABPP) coupled with bioimaging to identify the biological target of YL-939 (Fig. 4A). To this end, we designed and synthesized a photoaffinity probe, YL-939-1 (Fig. 4A and Supplementary Fig. 5), which is YL-939 attached by a photo-crosslinker (L3) that contains a photo-reactive group diazirine and a clickable alkyne handle.

A further assay addresses T2, ALK1(h) (Homo sapiens, UniProt P37023).
T2 construct: gene ACVRL1
Description: as §1

A further assay deals with T3, ALK6(h) (Homo sapiens, UniProt O00238).
T3 construct: gene BMPR1B
Description: as §1

The target in the next assay is T4, AMPKα2(h) (Homo sapiens, UniProt P54646).
T4 construct: gene PRKAA2
Description: as §1

The target of a further assay is T5, Abl (H396P) (h) (Homo sapiens, UniProt P00519, H396P).
T5 construct: gene ABL1
Description: as §1

Another assay has as its target BrSK1(h) (Homo sapiens, UniProt Q8TDC3).
Description: as §1

The target in another assay is CDK17/cyclinY(h) (Homo sapiens, UniProt Q00537).
Description: as §1

Another assay deals with EphB3(h) (Homo sapiens, UniProt P54753).
Description: as §1

For the next assay, the target named is Flt1(h) (Homo sapiens, UniProt P17948).
Description: as §1

The next assay deals with GRK1(h) (Homo sapiens, UniProt Q15835).
Description: as §1

In another assay the target is GRK5(h) (Homo sapiens, UniProt P34947).
Description: as §1

The target in another assay is T6, IGF-1R(h) (Homo sapiens, UniProt P08069).
T6 construct: gene IGF1R
Description: as §1

For a further assay, the target named is T7, MRCKβ(h) (Homo sapiens, UniProt Q9Y5S2).
T7 construct: gene CDC42BPB
Description: as §1

A further assay has as its target NEK6(h) (Homo sapiens, UniProt Q9HC98).
Description: as §1

The target of the next assay is NUAK2(h) (Homo sapiens, UniProt Q9H093).
Description: as §1

In a further assay the target is T8, PDGFRα(V561D)(h) (Homo sapiens, UniProt P16234, V561D).
T8 construct: gene PDGFRA
Description: as §1

Another assay addresses T9, PKCα(h) (Homo sapiens, UniProt P17252).
T9 construct: gene PRKCA
Description: as §1

The target of the next assay is T10, PKR(h) (Homo sapiens, UniProt P19525).
T10 construct: gene EIF2AK2
Description: as §1

Another assay has as its target T11, TAO1(h) (Homo sapiens, UniProt Q7L7X3).
T11 construct: gene TAOK1
Description: as §1

In a further assay the target is TLK1(h) (Homo sapiens, UniProt Q9UKI8).
Description: as §1

Another assay has as its target T12, Wee1B(h) (Homo sapiens, UniProt P0C1S8).
T12 construct: gene WEE2
Description: as §1

In the next assay the target is T13, Yes(h) (Homo sapiens, UniProt P07947).
T13 construct: gene YES1
Description: as §1

Drawing on paper PMC9719519, “Non-classical ferroptosis inhibition by a small molecule targeting PHB2” (Nature Communications, 2022), this text covers remaining activity for one compound.

The structures appear in SMILES notation.

Chain of GRK1(h) (Q15835 whole entry): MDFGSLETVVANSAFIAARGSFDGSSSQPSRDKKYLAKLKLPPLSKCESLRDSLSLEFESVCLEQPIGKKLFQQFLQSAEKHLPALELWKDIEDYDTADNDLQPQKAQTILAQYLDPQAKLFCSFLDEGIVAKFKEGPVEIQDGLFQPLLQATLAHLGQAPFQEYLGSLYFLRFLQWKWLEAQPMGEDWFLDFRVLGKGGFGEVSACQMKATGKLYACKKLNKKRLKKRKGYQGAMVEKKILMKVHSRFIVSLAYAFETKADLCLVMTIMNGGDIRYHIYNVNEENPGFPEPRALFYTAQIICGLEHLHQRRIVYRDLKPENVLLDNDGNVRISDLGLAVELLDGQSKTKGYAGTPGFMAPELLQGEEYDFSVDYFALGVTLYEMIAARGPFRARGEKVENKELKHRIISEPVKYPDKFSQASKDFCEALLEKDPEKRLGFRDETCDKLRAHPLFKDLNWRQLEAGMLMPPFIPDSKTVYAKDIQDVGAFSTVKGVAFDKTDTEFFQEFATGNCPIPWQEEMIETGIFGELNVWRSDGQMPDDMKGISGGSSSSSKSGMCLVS
Chain of TLK1(h) (Q9UKI8 whole entry): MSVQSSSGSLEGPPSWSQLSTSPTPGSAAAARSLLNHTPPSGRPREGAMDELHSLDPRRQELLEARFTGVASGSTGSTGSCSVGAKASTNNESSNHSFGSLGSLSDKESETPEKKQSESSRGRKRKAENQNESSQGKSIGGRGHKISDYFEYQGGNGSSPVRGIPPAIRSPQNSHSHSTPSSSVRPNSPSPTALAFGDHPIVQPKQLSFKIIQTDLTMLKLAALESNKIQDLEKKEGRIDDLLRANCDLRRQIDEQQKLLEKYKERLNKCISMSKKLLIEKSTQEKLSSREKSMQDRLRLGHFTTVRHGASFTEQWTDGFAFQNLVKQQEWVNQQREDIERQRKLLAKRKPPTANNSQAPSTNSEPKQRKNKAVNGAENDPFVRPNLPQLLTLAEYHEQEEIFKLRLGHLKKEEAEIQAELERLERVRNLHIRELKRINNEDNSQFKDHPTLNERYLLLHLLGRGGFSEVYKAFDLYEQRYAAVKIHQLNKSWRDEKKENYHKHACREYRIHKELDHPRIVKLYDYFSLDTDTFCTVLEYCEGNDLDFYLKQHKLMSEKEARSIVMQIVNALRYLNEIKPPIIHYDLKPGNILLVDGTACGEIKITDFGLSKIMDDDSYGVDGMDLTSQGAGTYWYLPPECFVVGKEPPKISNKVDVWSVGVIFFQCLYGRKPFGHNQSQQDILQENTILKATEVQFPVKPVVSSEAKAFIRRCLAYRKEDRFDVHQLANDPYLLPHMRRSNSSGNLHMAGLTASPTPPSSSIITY
T7 sequence (Q9Y5S2 whole entry): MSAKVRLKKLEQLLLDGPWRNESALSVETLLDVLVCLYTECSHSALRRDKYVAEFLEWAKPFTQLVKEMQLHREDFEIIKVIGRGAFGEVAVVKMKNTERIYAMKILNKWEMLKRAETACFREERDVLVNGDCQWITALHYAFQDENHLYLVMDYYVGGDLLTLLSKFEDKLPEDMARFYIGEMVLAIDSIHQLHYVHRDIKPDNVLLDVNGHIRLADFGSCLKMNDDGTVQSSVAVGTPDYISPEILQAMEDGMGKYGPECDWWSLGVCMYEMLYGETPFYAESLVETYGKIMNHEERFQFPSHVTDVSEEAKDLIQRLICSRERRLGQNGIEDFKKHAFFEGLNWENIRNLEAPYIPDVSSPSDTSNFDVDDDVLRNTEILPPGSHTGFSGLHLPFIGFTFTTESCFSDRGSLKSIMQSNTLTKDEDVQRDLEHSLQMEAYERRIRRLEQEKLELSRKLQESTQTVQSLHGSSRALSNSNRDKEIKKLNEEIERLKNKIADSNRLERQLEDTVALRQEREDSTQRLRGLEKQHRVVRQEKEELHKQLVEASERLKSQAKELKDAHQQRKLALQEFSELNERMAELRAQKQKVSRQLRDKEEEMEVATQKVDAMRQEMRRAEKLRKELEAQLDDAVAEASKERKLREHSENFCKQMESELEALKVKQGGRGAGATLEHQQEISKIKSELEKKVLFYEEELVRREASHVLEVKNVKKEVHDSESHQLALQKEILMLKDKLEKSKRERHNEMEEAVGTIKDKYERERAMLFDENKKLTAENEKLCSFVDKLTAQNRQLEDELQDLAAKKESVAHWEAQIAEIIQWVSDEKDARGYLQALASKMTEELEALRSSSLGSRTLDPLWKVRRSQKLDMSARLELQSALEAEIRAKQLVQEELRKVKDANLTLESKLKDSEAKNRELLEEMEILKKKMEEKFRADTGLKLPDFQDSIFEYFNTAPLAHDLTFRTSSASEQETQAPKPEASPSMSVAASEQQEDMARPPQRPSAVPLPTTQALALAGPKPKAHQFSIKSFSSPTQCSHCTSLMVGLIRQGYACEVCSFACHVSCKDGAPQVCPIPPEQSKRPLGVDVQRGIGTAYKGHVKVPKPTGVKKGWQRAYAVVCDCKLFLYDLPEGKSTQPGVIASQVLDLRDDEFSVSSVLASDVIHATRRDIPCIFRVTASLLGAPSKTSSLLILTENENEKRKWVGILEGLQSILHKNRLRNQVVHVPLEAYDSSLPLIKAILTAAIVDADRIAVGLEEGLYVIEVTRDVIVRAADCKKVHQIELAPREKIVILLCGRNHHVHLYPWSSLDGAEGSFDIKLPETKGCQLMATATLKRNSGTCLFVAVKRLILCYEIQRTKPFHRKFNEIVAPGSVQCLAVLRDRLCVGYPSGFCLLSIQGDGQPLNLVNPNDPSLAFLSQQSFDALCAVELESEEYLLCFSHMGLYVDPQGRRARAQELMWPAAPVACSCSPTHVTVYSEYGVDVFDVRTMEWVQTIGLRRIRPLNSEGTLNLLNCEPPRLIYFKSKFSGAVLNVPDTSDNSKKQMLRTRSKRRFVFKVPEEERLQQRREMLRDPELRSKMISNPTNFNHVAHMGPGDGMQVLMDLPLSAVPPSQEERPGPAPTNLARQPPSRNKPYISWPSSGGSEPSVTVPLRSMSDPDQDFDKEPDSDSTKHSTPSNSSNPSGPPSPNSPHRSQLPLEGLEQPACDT
Chain of BrSK1(h) (Q8TDC3 whole entry): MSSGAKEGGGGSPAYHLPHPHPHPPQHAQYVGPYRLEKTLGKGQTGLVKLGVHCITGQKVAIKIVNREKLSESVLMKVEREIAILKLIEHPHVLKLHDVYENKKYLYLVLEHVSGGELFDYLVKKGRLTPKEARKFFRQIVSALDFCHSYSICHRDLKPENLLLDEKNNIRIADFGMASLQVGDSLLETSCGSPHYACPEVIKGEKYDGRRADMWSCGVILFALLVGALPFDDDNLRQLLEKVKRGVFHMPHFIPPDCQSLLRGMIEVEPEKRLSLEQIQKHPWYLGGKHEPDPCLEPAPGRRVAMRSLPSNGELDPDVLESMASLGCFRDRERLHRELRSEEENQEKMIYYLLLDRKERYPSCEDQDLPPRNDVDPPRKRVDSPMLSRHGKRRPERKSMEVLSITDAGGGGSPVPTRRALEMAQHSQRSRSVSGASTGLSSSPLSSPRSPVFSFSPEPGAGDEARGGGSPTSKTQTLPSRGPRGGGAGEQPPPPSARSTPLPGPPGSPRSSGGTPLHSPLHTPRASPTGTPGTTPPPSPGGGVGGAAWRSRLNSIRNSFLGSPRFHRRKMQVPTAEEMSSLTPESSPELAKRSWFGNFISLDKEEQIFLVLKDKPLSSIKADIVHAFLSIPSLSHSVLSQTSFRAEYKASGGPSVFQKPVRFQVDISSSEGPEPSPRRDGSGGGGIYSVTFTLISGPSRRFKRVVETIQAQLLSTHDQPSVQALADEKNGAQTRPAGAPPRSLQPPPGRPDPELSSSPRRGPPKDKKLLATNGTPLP
Chain of GRK5(h) (P34947 whole entry): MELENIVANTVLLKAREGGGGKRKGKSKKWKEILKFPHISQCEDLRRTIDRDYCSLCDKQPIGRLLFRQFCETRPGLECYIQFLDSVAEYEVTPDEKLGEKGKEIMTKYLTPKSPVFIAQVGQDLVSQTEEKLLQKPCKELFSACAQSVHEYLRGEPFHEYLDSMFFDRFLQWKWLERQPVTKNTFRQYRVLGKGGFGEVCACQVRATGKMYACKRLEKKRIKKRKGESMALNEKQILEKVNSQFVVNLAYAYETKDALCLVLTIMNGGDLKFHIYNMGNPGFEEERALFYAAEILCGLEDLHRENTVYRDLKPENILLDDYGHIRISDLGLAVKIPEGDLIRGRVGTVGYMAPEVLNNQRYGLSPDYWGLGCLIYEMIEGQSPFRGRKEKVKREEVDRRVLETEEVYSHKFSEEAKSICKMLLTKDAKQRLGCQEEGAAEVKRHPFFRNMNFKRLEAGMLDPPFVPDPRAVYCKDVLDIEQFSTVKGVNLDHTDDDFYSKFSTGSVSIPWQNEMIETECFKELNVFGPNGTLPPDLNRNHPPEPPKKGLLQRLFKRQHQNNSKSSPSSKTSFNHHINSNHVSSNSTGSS
T12 sequence (P0C1S8 whole entry): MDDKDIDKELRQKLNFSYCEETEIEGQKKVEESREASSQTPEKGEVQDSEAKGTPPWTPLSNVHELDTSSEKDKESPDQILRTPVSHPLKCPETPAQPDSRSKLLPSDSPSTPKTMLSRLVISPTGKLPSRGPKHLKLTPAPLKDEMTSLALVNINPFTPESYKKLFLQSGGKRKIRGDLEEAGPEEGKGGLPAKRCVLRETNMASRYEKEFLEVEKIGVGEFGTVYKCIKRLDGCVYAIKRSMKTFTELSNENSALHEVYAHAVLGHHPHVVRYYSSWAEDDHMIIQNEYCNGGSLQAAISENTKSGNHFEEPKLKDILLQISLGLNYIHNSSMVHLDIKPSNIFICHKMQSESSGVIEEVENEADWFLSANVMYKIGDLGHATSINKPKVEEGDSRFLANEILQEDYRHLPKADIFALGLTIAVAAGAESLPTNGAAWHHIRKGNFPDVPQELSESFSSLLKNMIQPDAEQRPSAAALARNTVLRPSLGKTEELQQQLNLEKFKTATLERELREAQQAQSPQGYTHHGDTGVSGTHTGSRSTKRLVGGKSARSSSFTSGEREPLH

As for `C1=C(c2nc(-c3cnn(C4CCNCC4)c3)cn3cc(-c4ccccc4)nc23)CCOC1` [YL-939], the remaining activity at 10 µM on A-Raf(h) came out at 83%; on ALK1(h), 94%; at ALK6(h) it was 105%; at AMPKα2(h), 100%; on Abl (H396P) (h), 91%; at BrSK1(h), 91%. In addition, the remaining activity at 10 µM on CDK17/cyclinY(h) came to 93%; at EphB3(h), 93%; on Flt1(h), 65%; at GRK1(h), 109%; on GRK5(h) it was 72%; on IGF-1R(h) it was 82%. Besides, the remaining activity at 10 µM on MRCKβ(h) came out at 84%; on NEK6(h), 97%; at NUAK2(h), 72%; at PDGFRα(V561D)(h), 101%; on PKCα(h) it was 104%; on PKR(h) it was 97%. Moreover, the remaining activity at 10 µM is 81% at TAO1(h), 71% at TLK1(h), 92% at Wee1B(h) and 90% at Yes(h).
